Measured values from ChEMBL document CHEMBL1156042, “First stereoselective total synthesis and anticancer activity of new amide alkaloids of roots of pepper” (Bioorg Med Chem Lett, 2009).
Values after ≈ are worked out from the molar mass of the structure shown.

Legend:
Type in all cases: functional, cell-based
[1] = system: MCF7; experiment: Anticancer activity against human MCF7 cells by MTT method
[2] = system: A549; experiment: Anticancer activity against human A549 cells by MTT method
[3] = system: HT-29; experiment: Anticancer activity against human HT-29 cells by MTT method
[4] = Homo sapiens, A549, read-out: IC50
[5] = Homo sapiens, HT-29, read-out: IC50

| Structure (SMILES) | IC50 [1] | IC50 [2, 4] [µg/mL] | IC50 [3, 5] [µg/mL] | IC50 ([2]; a549) | IC50 ([3]; ht-29) |
| --- | --- | --- | --- | --- | --- |
| CCCCC[C@@H](O)[C@H](O)/C=C/C(=O)N1CCCCC1 | Not Active | 135 (≈ 501 µM) | 125 (≈ 464 µM) |  |  |
| CCC[C@@H](O)[C@H](O)/C=C/C(=O)NCC(C)C | Not Active |  | 181 (≈ 789 µM) | Not Active |  |
| CCCCC[C@@H](O)[C@@H](O)/C=C/C(=O)N1CCCCC1 | Not Active | 182 (≈ 676 µM) |  |  | Not Active |
